Where two headings read alike, the source gives them in different places.
What was measured:
[1] = Pharmacokinetic evaluation in ICR mice after intravenous injection; type: in vivo; conditions: mouse; ICR male mice, 1.0 mg/kg intravenous, plasma
Procedure: A test compound (1.0 mg/kg) was administered to fasted ICR male mice via intravenous injection, and blood samples were collected at time points of 0.08, 0.25, 0.5, 1, 2, 4, 6, 8 and 24 h after the administration. Plasma sample was separated by centrifugation (8000 rpm) and stored at −80° C. until the sample was analyzed. Concentrations of the test compound in the plasma were determined by HPLC-MS/MS: the plasma was dispensed into appropriate tubes containing internal standard and methanol or acetonitrile. The tubes were mixed vigorously for 3 minutes to achieve deproteinization and then centrifuged at 8000 rpm for 5 minutes. The supernatant was transferred to an autosampler vial, injected into the chromatographic system, and quantified on MS/MS detector. Pharmacokinetic parameters including AUC0-4, Cmax, Tmax, t1/2, MRT, Cl and Vd were calculated using WinNonlin 6.3 software. Table 3 summarizes key PK parameters for test compounds (AUC(0-t): the area under the curve from time 0 to time t; AUC(0-∞): the area under the curve from time 0 to infinity; t1/2: Half-life; CL: clearance; C0: the concentration of drug in blood if the drug molecules enter the circulation and are distributed immediately (i.e., at time 0)).

human T cell = experiment: CD73 cellular assay (T cell stimulation assay: CellTiter-Glo proliferation and IFN-γ ELISA); type: cell-based; conditions: human T cells, anti-CD3/CD28, AMP + EHNA, 72 hours
Procedure: Day 2, human T cell seeding: (a) washing the coated plate (from Day 1) with sterilized PBS buffer (2×100 uL); (b) re-suspending T cells and adjusting cell density to 0.5×10^6 cells/mL with growth media (X-VIVO 15+1% Pen/strep+1% glutamine), and seeding 100 μL/well (50,000 cells/well) in 96-well plates; (c) diluting CD28 antibody for 8× working concentration (8 μg/mL) with growth media, giving 1 μg/mL of the final concentration, followed by addition of CD28 antibody (25 μL) to cell plate; incubating the plates under 5% CO2 at 37° C. for 60 min; (d) adding compound (25 μL, 8×dilution with growth media) to cell plate, and incubating the plates under 5% CO2 at 37° C. for 60 min; (e) adding AMP (25 μL) and EHNA (25 μL, 8×dilution with growth media) to cell plate; (f) incubating the plates under 5% CO2 at 37° C. for 72 hours.
Day 5, collecting cell growth media and testing cell proliferation: (a) centrifuging the cell plate (1,000 rpm) for 5 min; (b) harvesting 150 μL of the cell culture media from each well to 96 well plate, followed by measurement of IFN-r expression by ELISA test; (c) taking a portion of the cell culture supernatant for cytokine analysis, removing the remaining supernatant, followed by addition of fresh growth media (X-VIVO 15+1% Pen/strep+1% glutamine, 100 μL); (d) adding Celltiter-Glo solution (50 μL) into each well for the measurement of cell proliferation by: (e) incubating the plates at room temperature for 10 min on a shaker; (f) transferring 100 μL solution into 96-well white plate and taking the readout of the Celltiter-Glo data using a TECAN Reader.

[2] = biological target: T1, Recombinant human 5′-nucleotidase (hCD73) (Homo sapiens, UniProt P21589); experiment: CD73 enzyme inhibition assay (recombinant hCD73, AMP substrate, phosphate detection); type: biochemical; conditions: 37° C. 20 min, absorbance 635 nm
T1 sequence (P21589 27-549): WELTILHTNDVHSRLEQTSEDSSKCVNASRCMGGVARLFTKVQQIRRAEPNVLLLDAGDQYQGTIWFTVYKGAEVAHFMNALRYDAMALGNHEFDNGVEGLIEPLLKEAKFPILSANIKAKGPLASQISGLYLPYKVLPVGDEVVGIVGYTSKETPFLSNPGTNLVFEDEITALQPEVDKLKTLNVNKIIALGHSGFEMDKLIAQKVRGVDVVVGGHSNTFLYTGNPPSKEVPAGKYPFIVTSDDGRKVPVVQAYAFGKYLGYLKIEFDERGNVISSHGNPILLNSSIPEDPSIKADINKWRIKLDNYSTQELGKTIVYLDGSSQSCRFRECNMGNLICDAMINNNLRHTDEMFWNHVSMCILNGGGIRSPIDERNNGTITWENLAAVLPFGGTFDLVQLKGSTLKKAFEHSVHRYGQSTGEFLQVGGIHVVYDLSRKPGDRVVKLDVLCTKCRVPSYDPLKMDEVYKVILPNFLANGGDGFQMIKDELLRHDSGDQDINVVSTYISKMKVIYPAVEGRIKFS
Procedure: Test compound solution preparation: Stock solution of a test compound was prepared in DMSO at 10 mM concentration. A series of preset 10-concentration solutions of a test compound were prepared by diluting the stock solution in 5-fold gradient dilution with DMSO.
Assay buffer (1×): […] Tris, 25 mM NaCl, 1 mM MgCl2, pH 7.5, 0.005% Tween-20 (freshly prepared, and ready for use).
An aliquot of 0.25 μL of compound solution or DMSO (blank control) was added to each test well of a micro well plate. Recombinant human 5′-nucleotidase (hCD73) was diluted to 1 nM in assay buffer; and an aliquot of 25 μL hCD73 (1 nM) solution was added to the corresponding wells of the plate. The contents of the well were well-mixed, and the plate was covered with sealing film, centrifuged at 1000 rpm for 30 sec., followed by incubation at room temperature for 15 min. AMP, the substrate, was diluted to 60 μM concentration in the assay buffer. To each reaction well was added 25 μL of AMP solution. After mixing well, the plate was covered with sealing film, centrifuged at 1000 rpm for 30 sec., and incubated at 37° C. for 20 min. The absorbance signal (end point) was measured on SPARK plate reader at 635 nm (See PiColorLock™ Gold Phosphate Detection System (Abcam) test kit for reference).
The reaction wells containing CD73 enzyme, substrate AMP and DMSO (no compound) were used as positive control, and the reaction wells containing substrate AMP and DMSO but no CD73 enzyme were used as negative control. The percent (%) inhibition at each concentration of compound was calculated based on and relative to the signal in the High and Low control wells contained within each assay plate. The High control wells were considered as 0% inhibition, and the low control wells, which didn't contain any compound but rather DMSO (final concentration=0.5%), as 100% inhibition. IC50 values were obtained using GraphPad Prism software.

[3] = read-out: EC50 CTG (CellTiter-Glo, cell proliferation)
[4] = read-out: EC50 IFN-γ (ELISA, indicator for T-cell activity)

| Compound | clearance [1] | EC50 (human T cell; [3]) | EC50 (human T cell; [4]) | IC50 [2] |
| --- | --- | --- | --- | --- |
| O=P(O)(O)CP(=O)(O)OC[C@H]1O[C@@H](n2cnc3c(N4CCC5(CCCCC5)C4)nc(Cl)nc32)[C@@H](O)C1O (some centres unmarked) [Compound b, reference compound] | 0.111 L/h/kg | 7.53 nM | 14.2 nM | 1.08 nM |
| O=P(O)(O)CP(=O)(O)OC[C@H]1O[C@@H](n2cnc3c(N4CC5(CCc6ccccc65)C4)nc(Cl)nc32)[C@@H](O)C1O (stereo partly drawn) [d-1] | 0.159 L/h/kg | 3.13 nM | 1.45 nM | 0.47 nM |
